From patent publication US5508275A, “Lipid-selective antioxidants and their preparation and use” (Hoechst Aktiengesellschaft, priority 1990, dated 1996)

Tests used:
[1] = Solubility in water and olive oil (Method III)
Method: a) Preparation of olive oil or aqueous solutions. 1 ml of olive oil or I ml of double-distilled water (or dilute NaOH pH=7.6) was added to 1 mg or 10 mg or 50 mg of the respective compound at 37° C. and it was checked whether a clear solution was obtained. The optionally centrifuged and decanted olive oil solutions were heated for 5 minutes using a Bunsen burner and the degree of browning of the olive oil was determined. […] Samples having poor protective action are given a (*) in the table (see below).

[2] = Inhibition of the oxidation of lipids: SA-PC in cyclohexane (Method IV); format: biochemical; conditions: 37° C., absorption at 234 nm
Method: Oxidation of 1-stearoyl-2-arachidonoylphosphatidylcholine (SA-PC) in cyclohexane (37° C.). 100 mcl of a SA-PC solution (10 mg/ml of CHCl3) were evaporated by blowing (argon) and the residue was taken up in 1 ml of cyclohexane. After adding an amount of antioxidant which would also dissolve in olive oil (cf. Table 1), the absorption was measured at 234 nm (Perkin Elmer 5528 spektrophotometer, Uberlingan, FRG) and the solvent was then evaporated by blowing with air. After a fur%her 24 hours standing in an open vessel, the residue was again dissolved in i ml of cyclohexane and the absorption at 234 nm was measured as a measurement of the oxidized SA-PC.

[3] = test system: thrombus formation in rats; test: Laser-induced thrombosis in rats in vivo (Method VIII); parameters: species or system rat; conditions: 30 mg/kg oral, laser induction 60 min after administration
Method: The experimental procedure was carried out in every detail as described in U.S. Pat. No. 4,694,024. Laser induction took place 60 min after oral administration of the antioxidants.

[4] = Long-term administration in the hyperlipidemic infarct-sensitive rat: total serum cholesterol (Method XI); format: in vivo; conditions: 50 mg/kg oral, after 9 days; control 286
Method: While no test substance was administered to the control group I (cf. the following Table), the standard diet in the pharmaceutical experiments II-IV additionally contained 50 mg/kg of body weight of the test substances indicated in the table below. After 9 days, the rats were examined, as described above, in the laser-induced thrombosis test, and the total cholesterol content of the serum was determined. […] Moreover, the substances according to the invention exerted an advantageous hypolipidemic effect.

[5] = test system: proneness to thrombosis of hyperlipidemic infarct-sensitive rats; test: Long-term administration in the hyperlipidemic infarct-sensitive rat: laser-induced thrombosis test (Method XI); format: in vivo; conditions: 50 mg/kg oral, after 9 days
Method: Male infarct-sensitive rats about 200 g in weight (Mollegaard, Ejby, Denmark) were treated orally once daily with 1 ml/100 g of body weight of a standard diet (100 g of cholic acid, 100 g of cholesterol, 30 g of propylthiouracil to 1 l of sesame oil). While no test substance was administered to the control group I (cf. the following Table), the standard diet in the pharmaceutical experiments II-IV additionally contained 50 mg/kg of body weight of the test substances indicated in the table below. After 9 days, the rats were examined, as described above, in the laser-induced thrombosis test, and the total cholesterol content of the serum was determined.

[6] = Antioxidative radical scavenger properties by the diphenylpicrylhydrazine (DPPH) method (Method I); format: biochemical; conditions: absolute ethanol
Method: Antioxidative radical scavenger properties by the diphenylpicrylhydrazine (DPPH) method: The determination was carried out spectrophotometrically (PMQ4 from Zeiss, Oberkochen, FRG) by the method described in Smith and Reeves, Biochemical Pharmacology 36 (1987) pp. 1457-1460. The measurement is the rate constant determined graphically (concentration versus conversion rate) in a known manner, measured in absolute ethanol.

[7] = olive oil, organic solvent or mixture

| Compound | solubility [1, 7] | solubility ([1]; water) | prevention of the oxidation of SA-PC, reduced dithiol vs. corresponding oxidized dithio compounds [2] | Reduction of thrombus formation [3] | Total cholesterol [4] | Reduction in proneness to thrombosis vs. control (%) [5] | Reaction with DPPH (rate constant) [6] | Solubility, Olive oil ([1]; olive oil) | Solubility, Water ([1]; water) |
| --- | --- | --- | --- | --- | --- | --- | --- | --- | --- |
| CCCCCCCCCCCCCCCCCCNC(=O)CCCCC(S)CCS (racemic) [Example 49] | > 10000 µg/mL | < 100 µg/mL | possible to prevent the oxidation of SA-PC Just as effectively | 20% | 259 mg/dL | 34% |  |  |  |
| O=C1O[C@H]([C@@H](O)CO)C(O)=C1O [Ascorbic acid] |  |  |  |  |  |  | 2.99 |  |  |
| Cc1c(C)c2c(c(C)c1O)CCC(C)(C(=O)NCCCNC(=O)CC[C@@H](C)[C@H]1CC[C@H]3[C@@H]4CC[C@@H]5C[C@H](O)CC[C@]5(C)[C@H]4C[C@H](O)[C@]13C)O2 (some centres unmarked) [Example 2] | > 10000 µg/mL | > 100 µg/mL |  | 14% | 270 mg/dL | 50% |  |  |  |
| Vitamin E [reference compound] |  |  |  | 5% | 278 mg/dL | 26% |  | > 10000 µg/mL | < 100 µg/mL |
